Measurements published in patent US20260198493A1, “HYDRAZIDE COMPOUND AND AGRICULTURAL/HORTICULTURAL FUNGICIDE” (Nippon Soda Co., Ltd., priority 2022, published 2026).

Columns and labels:
[1] = system: Botrytis cinerea; format: cell-based; conditions: 120 h, 25 ppm by volume, Vogel medium, 20° C., five days, dark, read-out: growth inhibition ratio
[2] = system: Fusarium graminearum; assay: microbe, parasite or virus in culture; format: cell-based; conditions: 96 h, read-out: growth inhibition ratio
[3] = system: Colletotrichum acutatum; assay: Fungicidal effect test against fungi causing apple anthracnose; conditions: 96 h, read-out: growth inhibition ratio
[4] = system: Glomerella cingulata; assay: Fungicidal effect test against fungi causing grape ripe rot disease; conditions: Colletotrichum gloeosporioides, 72 h, read-out: growth inhibition ratio
[5] = system: Botrytis cinerea; assay: Control test of cucumber gray mold (sprayed young cucumber seedlings); format: in vivo; conditions: 96 h, four days after inoculation; for pest or weed control at 125 ppm: 125 ppm by mass spray; for pest or weed control at 25 ppm: 25 ppm by mass spray
Protocol: Then, the drug liquid was sprayed onto young cucumber seedlings cultivated in a nursery pot (variety “Jihai”-based, cotyledon stage), and then air-dried. […] They were left still in a moist room at 20° C. Four days after inoculation, leaves of the young cucumber seedlings were visually observed, and the control value was calculated from the lesion area ratio in accordance with the following equation. [formula]

[6] = system: Venturia inaequalis; assay: Control test of apple scab disease (sprayed young apple seedlings); format: in vivo; conditions: 125 ppm by mass spray, 12 to 14 days after inoculation
Protocol: [formula] […] Then, the drug liquid was sprayed onto young apple seedlings cultivated in a nursery pot (variety “Orin”, three-to four-leaf stage), and then air-dried. Thereafter, conidiospores of fungi causing apple scab disease (Venturia inaequalis) were inoculated thereon (treated area). As a control, the conidiospores were inoculated in a similar manner to the above on young apple seedlings unsprayed with the drug liquid (untreated area). They were left still at 20° C. in a moist room with light and dark cycles repeated every 12 hours. 12 Days to 14 days after inoculation, leaves of young apple seedlings were visually observed, and the control value was calculated from the lesion area ratio in accordance with the equation used in the control test of cucumber gray mold.

[7] = system: Erysiphe graminis f.sp.tritici; assay: Control test of wheat powdery mildew disease (sprayed young wheat seedlings); format: in vivo; conditions: Blumeria graminis, 144 h, 125 ppm by mass spray, six days after inoculation
Excerpt: [formula] […] Then, the drug liquid was sprayed onto young wheat seedlings cultivated in a nursery pot (variety “Chihoku”, one-to two-leaf stage), and then air-dried. Thereafter, conidiospores of fungi causing wheat powdery mildew disease (Erysiphe graminis f.sp.tritici) were sprinkled on the young wheat seedlings to inoculate them (treated area). As a control, the conidiospores of fungi causing wheat powdery mildew disease (Erysiphe graminis f.sp.tritici) were sprinkled on young wheat seedlings unsprayed with the drug liquid (untreated area). They were left still in a greenhouse at 20° C. Six days after inoculation, leaves of young wheat seedlings were visually observed, and the lesion area ratio was determined to calculate the control value in a similar manner to the previous test.

Cc1ccc(CNNC(=O)c2cc(C)nnc2Oc2cccc(C3CC3)c2F)c(C)c1 [b-1]
≥ 75%: inhibition of growth at 25 ppm [1] | inhibition of growth at 25 ppm [2] | inhibition of growth at 25 ppm [3] | inhibition of growth at 25 ppm [4]

Cc1cc(C(=O)NNCc2ccc(Cl)cc2Cl)c(Oc2cccc(C3CC3)c2F)nn1 [b-7]
≥ 75%: inhibition of growth at 25 ppm [1] | inhibition of growth at 25 ppm [2] | inhibition of growth at 25 ppm [3] | inhibition of growth at 25 ppm [4]

Cc1ccc(CNNC(=O)c2cc(C)ncc2Oc2cccc(C3CC3)c2F)c(C)c1 [b-8]
≥ 75%: inhibition of growth at 25 ppm [1] | inhibition of growth at 25 ppm [2] | inhibition of growth at 25 ppm [3] | inhibition of growth at 25 ppm [4]

COC(=O)N(Cc1ccc(C)cc1C)NC(=O)c1cc(Cl)nnc1Oc1ccc2c(c1)OCO2 [b-81]
≥ 75%: inhibition of growth at 25 ppm [1] | pest or weed control at 125 ppm [5] | pest or weed control at 125 ppm [6] | pest or weed control at 125 ppm [7] | inhibition of growth at 25 ppm [3] | inhibition of growth at 25 ppm [4]

COC(=O)N(Cc1ccc(OC)cc1OC)NC(=O)c1cc(C)nnc1Oc1cccc(C2CC2)c1F [b-83]
≥ 75%: inhibition of growth at 25 ppm [1] | pest or weed control at 125 ppm [5] | pest or weed control at 125 ppm [6] | pest or weed control at 125 ppm [7] | inhibition of growth at 25 ppm [3] | inhibition of growth at 25 ppm [4]

COC(=O)N(Cc1ccc(C)cc1C)NC(=O)c1c(Oc2cccc(Br)c2F)nnc2c1CCC2 [b-92, Methyl 2-(3-(3-bromo-2-fluorophenoxy)-6,7-dihydro-5H-cyclopenta[c]pyridazine-4-carbonyl)-1-(2,4-dimethylbenzyl)hydrazine-1-carboxylate]
≥ 75%: inhibition of growth at 25 ppm [1] | pest or weed control at 25 ppm [5] | pest or weed control at 125 ppm [5] | pest or weed control at 125 ppm [6] | pest or weed control at 125 ppm [7] | inhibition of growth at 25 ppm [3] | inhibition of growth at 25 ppm [4]

COC(=O)N(Cc1ccc(C)cc1C)NC(=O)c1cc(C)nnc1Oc1cncc(Br)c1 [b-96]
≥ 75%: inhibition of growth at 25 ppm [1] | pest or weed control at 125 ppm [5] | pest or weed control at 125 ppm [6] | pest or weed control at 125 ppm [7] | inhibition of growth at 25 ppm [3] | inhibition of growth at 25 ppm [4]

COC(=O)N(Cc1ccc(C)cc1)NC(=O)c1cc(C)nnc1Oc1cccc(C2CC2)c1F [b-101]
≥ 75%: inhibition of growth at 25 ppm [1] | pest or weed control at 25 ppm [5] | pest or weed control at 125 ppm [5] | pest or weed control at 125 ppm [6] | pest or weed control at 125 ppm [7] | inhibition of growth at 25 ppm [3] | inhibition of growth at 25 ppm [4]

COC(=O)N(Cc1ccccc1C)NC(=O)c1cc(C)nnc1Oc1cccc(C2CC2)c1F [b-103]
≥ 75%: inhibition of growth at 25 ppm [1] | pest or weed control at 25 ppm [5] | pest or weed control at 125 ppm [5] | pest or weed control at 125 ppm [6] | pest or weed control at 125 ppm [7] | inhibition of growth at 25 ppm [3] | inhibition of growth at 25 ppm [4]

COC(=O)N(Cc1ccc(C(F)(F)F)cc1C)NC(=O)c1cc(C)nnc1Oc1cccc(C2CC2)c1F [b-109]
≥ 75%: inhibition of growth at 25 ppm [1] | pest or weed control at 25 ppm [5] | pest or weed control at 125 ppm [5] | pest or weed control at 125 ppm [6] | pest or weed control at 125 ppm [7] | inhibition of growth at 25 ppm [3] | inhibition of growth at 25 ppm [4]

COC(=O)N(Cc1ccc(C)cc1C)NC(=O)c1cc(C)nnc1Oc1cccc(I)c1 [b-114]
≥ 75%: inhibition of growth at 25 ppm [1] | pest or weed control at 125 ppm [5] | pest or weed control at 125 ppm [6] | pest or weed control at 125 ppm [7] | inhibition of growth at 25 ppm [3] | inhibition of growth at 25 ppm [4]

COC(=O)N(Cc1ccc(F)cc1C)NC(=O)c1cc(C)nnc1Oc1cccc(C2CC2)c1F [b-121]
≥ 75%: inhibition of growth at 25 ppm [1] | pest or weed control at 25 ppm [5] | pest or weed control at 125 ppm [5] | pest or weed control at 125 ppm [6] | pest or weed control at 125 ppm [7] | inhibition of growth at 25 ppm [3] | inhibition of growth at 25 ppm [4]

COC(=O)N(Cc1ccc(OC)cc1C)NC(=O)c1ccncc1Oc1cccc(C2CC2)c1F [b-151]
≥ 75%: inhibition of growth at 25 ppm [1] | pest or weed control at 25 ppm [5] | pest or weed control at 125 ppm [5] | pest or weed control at 125 ppm [6] | pest or weed control at 125 ppm [7] | inhibition of growth at 25 ppm [3] | inhibition of growth at 25 ppm [4]

COC(=O)N(Cc1ccc(OC(F)(F)F)cc1C)NC(=O)c1cc(C)nnc1Oc1cccc(C2CC2)c1F [b-158]
≥ 75%: inhibition of growth at 25 ppm [1] | pest or weed control at 25 ppm [5] | pest or weed control at 125 ppm [5] | pest or weed control at 125 ppm [6] | pest or weed control at 125 ppm [7] | inhibition of growth at 25 ppm [3] | inhibition of growth at 25 ppm [4]

COC(=O)N(Cc1cccc(C)c1)NC(=O)c1cc(C)nnc1Oc1cccc(C2CC2)c1F [b-159]
≥ 75%: inhibition of growth at 25 ppm [1] | pest or weed control at 25 ppm [5] | pest or weed control at 125 ppm [5] | pest or weed control at 125 ppm [6] | pest or weed control at 125 ppm [7] | inhibition of growth at 25 ppm [3] | inhibition of growth at 25 ppm [4]

COC(=O)N(Cc1ccc(C2CC2)cc1)NC(=O)c1cc(C)nnc1Oc1cccc(C2CC2)c1F [b-163]
≥ 75%: inhibition of growth at 25 ppm [1] | pest or weed control at 25 ppm [5] | pest or weed control at 125 ppm [5] | pest or weed control at 125 ppm [6] | pest or weed control at 125 ppm [7] | inhibition of growth at 25 ppm [3] | inhibition of growth at 25 ppm [4]

Cc1ccc(CN(NC(=O)c2cc(C)nnc2Oc2cccc(C3CC3)c2F)C(=O)OCc2ccccc2)c(C)c1 [b-182]
≥ 75%: inhibition of growth at 25 ppm [1] | pest or weed control at 25 ppm [5] | pest or weed control at 125 ppm [5] | pest or weed control at 125 ppm [6] | pest or weed control at 125 ppm [7] | inhibition of growth at 25 ppm [3] | inhibition of growth at 25 ppm [4]

Cc1ccc(CN(NC(=O)c2cc(C)nnc2Oc2cccc(C3CC3)c2F)C(=O)OCC2CC2)c(C)c1 [b-183]
≥ 75%: inhibition of growth at 25 ppm [1] | pest or weed control at 25 ppm [5] | pest or weed control at 125 ppm [5] | pest or weed control at 125 ppm [6] | pest or weed control at 125 ppm [7] | inhibition of growth at 25 ppm [3] | inhibition of growth at 25 ppm [4]

COC(=O)N(Cc1ccc(C)cc1C)NC(=O)c1ccnnc1Oc1cccc(C2CC2)c1F [b-189]
≥ 75%: inhibition of growth at 25 ppm [1] | pest or weed control at 25 ppm [5] | pest or weed control at 125 ppm [5] | pest or weed control at 125 ppm [6] | pest or weed control at 125 ppm [7] | inhibition of growth at 25 ppm [3] | inhibition of growth at 25 ppm [4]

COC(=O)N(Cc1ccc(C)cc1C)NC(=O)c1ccnnc1Oc1cccc(Cl)c1F [b-190]
≥ 75%: inhibition of growth at 25 ppm [1] | pest or weed control at 25 ppm [5] | pest or weed control at 125 ppm [5] | pest or weed control at 125 ppm [6] | pest or weed control at 125 ppm [7] | inhibition of growth at 25 ppm [3] | inhibition of growth at 25 ppm [4]

COC(=O)N(Cc1ccc(OC)cc1C)NC(=O)c1c(C)cnnc1Oc1cccc(C2CC2)c1F [b-192]
≥ 75%: inhibition of growth at 25 ppm [1] | pest or weed control at 25 ppm [5] | pest or weed control at 125 ppm [5] | pest or weed control at 125 ppm [6] | pest or weed control at 125 ppm [7] | inhibition of growth at 25 ppm [3] | inhibition of growth at 25 ppm [4]

COC(=O)N(Cc1ccc(OC)cc1C)NC(=O)c1c(F)cncc1Oc1cccc(C2CC2)c1F [b-201]
≥ 75%: inhibition of growth at 25 ppm [1] | pest or weed control at 25 ppm [5] | pest or weed control at 125 ppm [5] | pest or weed control at 125 ppm [6] | pest or weed control at 125 ppm [7] | inhibition of growth at 25 ppm [3] | inhibition of growth at 25 ppm [4]

COC(=O)N(Cc1ccc(C)cc1C)NC(=O)c1c(Cl)cncc1Oc1cccc(C2CC2)c1F [b-205]
≥ 75%: inhibition of growth at 25 ppm [1] | pest or weed control at 125 ppm [5] | pest or weed control at 125 ppm [6] | pest or weed control at 125 ppm [7] | inhibition of growth at 25 ppm [3] | inhibition of growth at 25 ppm [4]

COC(=O)N(Cc1ccc(OC)cc1C)NC(=O)c1c(Cl)cncc1Oc1cccc(C2CC2)c1F [b-206]
≥ 75%: inhibition of growth at 25 ppm [1] | pest or weed control at 25 ppm [5] | pest or weed control at 125 ppm [5] | pest or weed control at 125 ppm [6] | pest or weed control at 125 ppm [7] | inhibition of growth at 25 ppm [3] | inhibition of growth at 25 ppm [4]

COC(=O)N(Cc1ccc(C)cc1C)/N=C(\OC)c1cc(C)nnc1Oc1cccc(Cl)c1F [b-220, Methyl (Z)-2-((3-(3-chloro-2-fluorophenoxy)-6-methylpyridazin-4-yl)(methoxy)methylene)-1-(2,4-dimethylbenzyl)hydrazine-1-carboxylate]
≥ 75%: inhibition of growth at 25 ppm [1] | pest or weed control at 125 ppm [5] | pest or weed control at 125 ppm [6] | pest or weed control at 125 ppm [7] | inhibition of growth at 25 ppm [3] | inhibition of growth at 25 ppm [4]
